Test results published in ChEMBL document CHEMBL1201862, “PubChem BioAssay data set” (2004).
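Values below derive from 48-hour exposures of cells grown in 96-well plates, with endpoints linearly interpolated between the two concentrations bracketing the appropriate inhibition level. GI50 is the concentration that inhibits growth by half.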 Active and inactive are the calls of the source. Rule as the data show it: active = GI50 up to about 1.1 µM and inactive = higher. Non-standard residues stand in square brackets, D forms with d. Residues, ends and D or L forms follow the SMILES beside them. ξ: configuration not given here. ξLac(3-iPr) = CC(C)CC(O)C(=O)O; NMeV = CN[CH](C(=O)O)C(C)C; NMeA = CN[CH](C)C(=O)O; βAla = NCCC(=O)O

Experiments:
Assay in all cases: NCI tumour cell line growth inhibition, 48 h
[1] = tested on: MOLT-4
[2] = tested on: SF-539
[3] = tested on: UO-31
[4] = tested on: OVCAR-4
[5] = tested on: RXF 393
[6] = tested on: SK-MEL-5
[7] = tested on: ACHN
[8] = tested on: SF-295
[9] = tested on: SK-MEL-28
[10] = tested on: MDA-N
[11] = tested on: OVCAR-3
[12] = tested on: A549
[13] = tested on: CCRF-CEM
[14] = tested on: U-251
[15] = tested on: SNB-19
[16] = tested on: UACC-62
[17] = tested on: HCT-15
[18] = tested on: Malme-3M
[19] = tested on: SK-OV-3
[20] = tested on: NCI-H23
[21] = tested on: Hs-578T
[22] = tested on: MCF7
[23] = tested on: SR
[24] = tested on: RPMI-8226
[25] = tested on: K562
[26] = tested on: SNB-75
[27] = tested on: NCI/ADR-RES
[28] = tested on: HOP-62
[29] = tested on: UACC-257
[30] = tested on: EKVX
[31] = tested on: 786-0
[32] = tested on: HCT-116
[33] = tested on: T47D
[34] = tested on: MDA-MB-435
[35] = tested on: M14
[36] = tested on: SK-MEL-2
[37] = tested on: KM12
[38] = tested on: PC-3
[39] = tested on: TK-10
[40] = tested on: COLO 205
[41] = tested on: SN12C
[42] = tested on: SW-620
[43] = tested on: LOX IMVI
[44] = tested on: NCI-H226
[45] = tested on: HOP-92
[46] = tested on: MDA-MB-231
[47] = tested on: CAKI-1
[48] = tested on: BT-549
[49] = tested on: NCI-H460
[50] = tested on: OVCAR-5
[51] = tested on: HCC 2998
[52] = tested on: HT-29
[53] = tested on: NCI-H522
[54] = tested on: HL-60
[55] = tested on: SF-268
[56] = tested on: OVCAR-8
[57] = tested on: DU-145
[58] = tested on: A498
[59] = tested on: IGROV-1
[60] = tested on: DMS-114
[61] = tested on: LXFL 529
[62] = tested on: M19-MEL
[63] = tested on: KM-20L2
[64] = tested on: DMS-273
[65] = tested on: DLD-1
[66] = tested on: SNB-78

Measured: GI50

COc1cc(C(c2cc3c(cc2O)OCO3)N2CCCCC2)cc(OC)c1OC (centres undefined)
15.9 µM: [17]
inactive: [1] 2.15 µM | [2] 17.9 µM | [3] 14.8 µM | [4] 11.9 µM | [5] 13.2 µM | [6] 19.1 µM | [7] 17.1 µM | [8] 41.5 µM | [9] 16.7 µM | [10] 7.28 µM | [11] 13.8 µM | [12] 20.9 µM | [13] 1.85 µM | [14] 15.8 µM | [15] 20.6 µM | [16] 16.4 µM | [18] 12.8 µM | [19] 22.2 µM | [20] 15.2 µM | [21] 14 µM | [22] 13.6 µM | [23] 2.33 µM | [24] 2.96 µM | [25] 2.63 µM | [26] 16.8 µM | [27] 17.5 µM | [28] 30 µM | [29] 12.5 µM | [30] 18.7 µM | [31] 5.86 µM | [32] 15.4 µM | [33] 22.4 µM | [34] 5.02 µM | [35] 6.28 µM | [36] 15.7 µM | [37] 18.2 µM | [38] 15.8 µM | [39] 17 µM | [40] 13.4 µM | [41] 11.5 µM | [42] 4.57 µM | [43] 14.8 µM | [44] 16.1 µM | [45] 9.25 µM | [46] 15 µM | [47] 12.1 µM | [48] 12 µM | [49] 21.8 µM | [50] 17.8 µM | [51] 22.2 µM | [52] 17 µM | [53] 11.8 µM | [54] 1.76 µM | [55] 15.8 µM | [56] 13.2 µM | [57] 17.5 µM | [58] 19.5 µM | [59] 17.7 µM

CCOC(=O)C1=C(C)N2CCCOC2(C)C(C(=O)OC)C1c1cccc([N+](=O)[O-])c1 (centres undefined)
inactive: [1] 34.3 µM | [2] > 100 µM | [60] 44.8 µM | [3] 51.6 µM | [5] > 100 µM | [6] 39.6 µM | [7] 71.6 µM | [8] 45.2 µM | [9] > 100 µM | [11] 42.9 µM | [12] 64.3 µM | [13] 76.6 µM | [15] > 100 µM | [16] 45.6 µM | [20] > 100 µM | [23] 35.2 µM | [24] 35 µM | [25] 55.2 µM | [26] 13.6 µM | [28] 99.1 µM | [29] 86.5 µM | [30] 50 µM | [32] 49.7 µM | [61] 45.7 µM | [35] > 100 µM | [36] > 100 µM | [37] 49.9 µM | [39] > 100 µM | [40] > 100 µM | [62] > 100 µM | [42] > 100 µM | [63] > 100 µM | [44] > 100 µM | [45] > 100 µM | [47] 64.9 µM | [49] 57.4 µM | [51] > 100 µM | [52] > 100 µM | [54] 32.1 µM | [55] > 100 µM | [56] 48 µM | [59] > 100 µM

Cc1c(-c2coc(-c3ccc([N+](=O)[O-])cc3)n2)c(=O)n(-c2ccccc2)n1C
> 100 µM: [17]
inactive: [1] > 100 µM | [2] > 100 µM | [60] > 100 µM | [3] > 100 µM | [4] > 100 µM | [64] > 100 µM | [6] > 100 µM | [65] > 100 µM | [7] > 100 µM | [8] > 100 µM | [9] > 100 µM | [66] > 100 µM | [11] > 100 µM | [12] > 100 µM | [13] > 100 µM | [14] > 100 µM | [16] > 100 µM | [18] > 100 µM | [19] > 100 µM | [20] > 100 µM | [24] > 100 µM | [26] > 100 µM | [28] > 100 µM | [29] > 100 µM | [30] > 100 µM | [31] > 100 µM | [32] > 100 µM | [61] > 100 µM | [35] > 100 µM | [36] > 100 µM | [37] > 100 µM | [39] > 100 µM | [40] > 100 µM | [41] > 100 µM | [62] > 100 µM | [63] > 100 µM | [43] > 100 µM | [44] > 100 µM | [45] > 100 µM | [49] > 100 µM | [50] > 100 µM | [51] > 100 µM | [52] > 100 µM | [53] > 100 µM | [54] > 100 µM | [55] > 100 µM | [56] > 100 µM | [58] > 100 µM | [59] > 100 µM

C[N+](C)(C)CCCCCc1c2nc(c(CCCCC[N+](C)(C)C)c3ccc([nH]3)c(CCCCC[N+](C)(C)C)c3nc(c(CCCCC[N+](C)(C)C)c4ccc1[nH]4)C=C3)C=C2
inactive: [1] > 100 µM | [2] > 100 µM | [3] > 100 µM | [4] > 100 µM | [5] 2.77 µM | [6] > 100 µM | [7] > 100 µM | [8] > 100 µM | [9] > 100 µM | [10] > 100 µM | [11] > 100 µM | [12] 87.9 µM | [13] > 100 µM | [14] > 100 µM | [15] > 100 µM | [16] > 100 µM | [18] > 100 µM | [19] > 100 µM | [20] > 100 µM | [21] 56 µM | [22] > 100 µM | [23] > 100 µM | [24] > 100 µM | [25] > 100 µM | [26] > 100 µM | [27] > 100 µM | [28] > 100 µM | [29] > 100 µM | [30] 99.8 µM | [31] > 100 µM | [32] > 100 µM | [33] > 100 µM | [34] > 100 µM | [35] > 100 µM | [36] > 100 µM | [37] > 100 µM | [38] > 100 µM | [39] 11.3 µM | [40] > 100 µM | [41] > 100 µM | [42] > 100 µM | [43] > 100 µM | [44] > 100 µM | [45] > 100 µM | [46] > 100 µM | [47] > 100 µM | [48] > 100 µM | [49] 67.3 µM | [50] > 100 µM | [51] > 100 µM | [52] > 100 µM | [53] > 100 µM | [54] > 100 µM | [55] > 100 µM | [56] > 100 µM | [57] > 100 µM | [58] > 100 µM | [59] > 100 µM
> 100 µM: [17]

CCC(C)C1NC(=O)C2CCCN2C(=O)C(CC(C)C)OC(=O)CCNC(=O)C(C)N(C)C(=O)C(C(C)C)N(C)C1=O (centres undefined) (cyclo([ξLac(3-iPr)]PI[NMeV][NMeA][βAla]); configuration not given here)
4.57 µM: [17]
active: [13] 0.736 µM | [23] 0.766 µM | [43] 1.11 µM | [54] 0.593 µM
inactive: [1] 1.83 µM | [2] 7.1 µM | [3] 6.84 µM | [4] > 50.7 µM | [5] 3.83 µM | [6] 1.21 µM | [7] 4.58 µM | [8] 2.5 µM | [9] 36.1 µM | [10] 2.61 µM | [11] 6.7 µM | [12] 4.82 µM | [14] 10.3 µM | [15] 49 µM | [16] 2.21 µM | [18] 6.55 µM | [19] 20.6 µM | [20] 9.84 µM | [21] 23.2 µM | [22] 2.64 µM | [24] 1.29 µM | [25] 3.16 µM | [26] 15.5 µM | [27] 16.1 µM | [28] 2.77 µM | [29] 6.32 µM | [30] 10.2 µM | [31] 2.09 µM | [32] 2.2 µM | [33] 4.68 µM | [34] 2.43 µM | [35] 1.91 µM | [36] 2.42 µM | [37] 3.44 µM | [38] 1.79 µM | [39] 23.2 µM | [40] 3.61 µM | [41] 6.84 µM | [42] 3.73 µM | [44] > 21.5 µM | [45] 17.9 µM | [46] 6.24 µM | [47] 6.95 µM | [48] > 26.1 µM | [49] 1.19 µM | [50] 4.83 µM | [51] 2.13 µM | [52] 1.32 µM | [53] 6.05 µM | [55] 6 µM | [56] 3.48 µM | [57] 4.05 µM | [58] 23.9 µM | [59] 5.83 µM
